Test results as given in publication PMC10004634 (PLOS ONE, 2023).

Experiments:
Assay in all cases: biochemical
Design in all cases: KINOMEscan scanMAX competition binding, DNA-tagged kinases, qPCR read-out, percent control at 300 nM
PKN2 = PKN2 (Homo sapiens, UniProt Q16513); conditions: read-out: Percent control / Acalabrutinib
PRKD3 = PRKD3 (Homo sapiens, UniProt O94806); conditions: read-out: Percent control / Acalabrutinib
TAOK2 = TAOK2 (Homo sapiens, UniProt Q9UL54); conditions: read-out: Percent control / Acalabrutinib
[1] = biological target: T1, ABL1(F317I)-phosphorylated (Homo sapiens, UniProt P00519, F317I); conditions: read-out: Percent control / Acalabrutinib
T1 construct: phosphorylated

CDC2L2 = biological target: T2, CDC2L2 (Homo sapiens, UniProt Q9UQ88); conditions: read-out: Percent control / Acalabrutinib
T2 construct: gene CDK11A

YANK3 = biological target: T3, YANK3 (Homo sapiens, UniProt Q86UX6); conditions: read-out: Percent control / Acalabrutinib
T3 construct: gene STK32C

ALK = ALK (Homo sapiens, UniProt Q9UM73); conditions: read-out: Percent control / Ibrutinib
YES = biological target: T4, YES (Homo sapiens, UniProt P07947); conditions: read-out: Percent control / Tirabrutinib
T4 construct: gene YES1

PRKR = biological target: T5, PRKR (Homo sapiens, UniProt P19525); conditions: read-out: Percent control / Tirabrutinib
T5 construct: gene EIF2AK2

EGFR(G719C) = EGFR(G719C) (Homo sapiens, UniProt P00533, G719C); conditions: read-out: Percent control / Tirabrutinib
Chain of EGFR(G719C) (P00533 whole entry G719C): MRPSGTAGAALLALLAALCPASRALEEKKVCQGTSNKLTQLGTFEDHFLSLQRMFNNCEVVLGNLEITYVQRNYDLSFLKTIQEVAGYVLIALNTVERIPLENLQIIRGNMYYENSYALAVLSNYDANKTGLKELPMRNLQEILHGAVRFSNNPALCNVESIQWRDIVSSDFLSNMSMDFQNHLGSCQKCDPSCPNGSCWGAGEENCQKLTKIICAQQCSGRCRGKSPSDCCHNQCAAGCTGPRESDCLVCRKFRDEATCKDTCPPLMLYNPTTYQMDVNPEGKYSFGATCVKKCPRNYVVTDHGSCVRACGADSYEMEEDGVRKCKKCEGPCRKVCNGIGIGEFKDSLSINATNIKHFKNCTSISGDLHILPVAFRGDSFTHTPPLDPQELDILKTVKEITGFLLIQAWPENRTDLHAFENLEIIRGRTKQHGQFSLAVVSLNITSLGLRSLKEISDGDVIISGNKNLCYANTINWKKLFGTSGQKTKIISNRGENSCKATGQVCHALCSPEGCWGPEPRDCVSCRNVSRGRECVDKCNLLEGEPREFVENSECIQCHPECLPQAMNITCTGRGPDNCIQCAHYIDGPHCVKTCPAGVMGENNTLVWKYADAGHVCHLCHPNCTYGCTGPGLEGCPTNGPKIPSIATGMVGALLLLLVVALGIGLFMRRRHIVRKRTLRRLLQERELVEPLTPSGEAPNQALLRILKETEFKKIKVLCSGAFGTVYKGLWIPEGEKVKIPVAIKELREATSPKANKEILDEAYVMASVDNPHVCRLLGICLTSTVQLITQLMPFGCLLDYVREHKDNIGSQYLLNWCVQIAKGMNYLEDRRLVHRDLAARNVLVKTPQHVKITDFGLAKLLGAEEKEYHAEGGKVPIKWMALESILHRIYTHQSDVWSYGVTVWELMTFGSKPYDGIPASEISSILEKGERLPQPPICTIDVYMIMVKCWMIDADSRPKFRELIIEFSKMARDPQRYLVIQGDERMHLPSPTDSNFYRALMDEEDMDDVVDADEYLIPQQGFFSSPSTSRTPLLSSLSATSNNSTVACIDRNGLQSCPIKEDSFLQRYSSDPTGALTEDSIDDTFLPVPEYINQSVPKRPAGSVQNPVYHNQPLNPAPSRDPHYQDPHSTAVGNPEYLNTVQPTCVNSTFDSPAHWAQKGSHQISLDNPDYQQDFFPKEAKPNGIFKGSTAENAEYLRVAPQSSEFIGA

EGFR(L861Q) = EGFR(L861Q) (Homo sapiens, UniProt P00533, L861Q); conditions: read-out: Percent control / Tirabrutinib
Chain of EGFR(L861Q) (P00533 whole entry L861Q): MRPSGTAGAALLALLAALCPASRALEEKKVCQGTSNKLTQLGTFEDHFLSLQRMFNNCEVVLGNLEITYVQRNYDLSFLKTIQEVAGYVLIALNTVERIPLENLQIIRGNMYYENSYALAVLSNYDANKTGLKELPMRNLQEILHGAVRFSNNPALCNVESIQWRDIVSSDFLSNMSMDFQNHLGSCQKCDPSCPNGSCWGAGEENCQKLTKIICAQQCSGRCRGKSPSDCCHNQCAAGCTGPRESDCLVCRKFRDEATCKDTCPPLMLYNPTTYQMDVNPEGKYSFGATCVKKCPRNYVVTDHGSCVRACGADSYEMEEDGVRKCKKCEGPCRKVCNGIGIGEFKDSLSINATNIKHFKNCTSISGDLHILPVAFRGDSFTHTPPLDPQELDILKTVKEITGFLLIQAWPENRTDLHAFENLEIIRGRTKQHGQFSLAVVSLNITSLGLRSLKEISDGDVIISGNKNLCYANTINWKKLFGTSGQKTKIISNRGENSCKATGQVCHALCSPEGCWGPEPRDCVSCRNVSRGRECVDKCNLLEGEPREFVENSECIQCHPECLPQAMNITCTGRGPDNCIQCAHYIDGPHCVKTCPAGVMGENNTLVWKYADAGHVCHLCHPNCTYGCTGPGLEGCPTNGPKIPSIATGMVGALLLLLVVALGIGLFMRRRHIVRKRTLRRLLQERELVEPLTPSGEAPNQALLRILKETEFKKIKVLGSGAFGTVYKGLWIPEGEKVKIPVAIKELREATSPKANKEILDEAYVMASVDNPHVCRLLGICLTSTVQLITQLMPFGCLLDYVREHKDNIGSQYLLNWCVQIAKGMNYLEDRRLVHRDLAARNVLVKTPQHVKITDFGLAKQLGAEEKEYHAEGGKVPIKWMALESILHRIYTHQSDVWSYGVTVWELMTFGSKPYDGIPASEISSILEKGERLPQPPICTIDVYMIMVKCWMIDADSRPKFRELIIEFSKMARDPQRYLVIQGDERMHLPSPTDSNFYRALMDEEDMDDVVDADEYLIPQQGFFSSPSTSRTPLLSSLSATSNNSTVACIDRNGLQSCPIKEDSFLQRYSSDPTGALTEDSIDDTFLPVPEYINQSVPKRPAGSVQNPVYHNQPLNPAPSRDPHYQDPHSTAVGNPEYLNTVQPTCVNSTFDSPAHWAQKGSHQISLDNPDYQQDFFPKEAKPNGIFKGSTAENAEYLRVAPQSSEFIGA

MEK4 = biological target: T6, MEK4 (Homo sapiens, UniProt P45985); conditions: read-out: Percent control / Zanubrutinib
T6 construct: gene MAP2K4

VRK2 = VRK2 (Homo sapiens, UniProt Q86Y07); conditions: read-out: Percent control / Zanubrutinib
LRRK2 = LRRK2 (Homo sapiens, UniProt Q5S007); conditions: read-out: Percent control / Zanubrutinib
TRKC = biological target: T7, TRKC (Homo sapiens, UniProt Q16288); conditions: read-out: Percent control / Zanubrutinib
T7 construct: gene NTRK3

CSNK2A2 = CSNK2A2 (Homo sapiens, UniProt P19784); conditions: read-out: Percent control / Zanubrutinib
HIPK2 = HIPK2 (Homo sapiens, UniProt Q9H2X6); conditions: read-out: Percent control / Zanubrutinib
Chain of HIPK2 (Q9H2X6 whole entry): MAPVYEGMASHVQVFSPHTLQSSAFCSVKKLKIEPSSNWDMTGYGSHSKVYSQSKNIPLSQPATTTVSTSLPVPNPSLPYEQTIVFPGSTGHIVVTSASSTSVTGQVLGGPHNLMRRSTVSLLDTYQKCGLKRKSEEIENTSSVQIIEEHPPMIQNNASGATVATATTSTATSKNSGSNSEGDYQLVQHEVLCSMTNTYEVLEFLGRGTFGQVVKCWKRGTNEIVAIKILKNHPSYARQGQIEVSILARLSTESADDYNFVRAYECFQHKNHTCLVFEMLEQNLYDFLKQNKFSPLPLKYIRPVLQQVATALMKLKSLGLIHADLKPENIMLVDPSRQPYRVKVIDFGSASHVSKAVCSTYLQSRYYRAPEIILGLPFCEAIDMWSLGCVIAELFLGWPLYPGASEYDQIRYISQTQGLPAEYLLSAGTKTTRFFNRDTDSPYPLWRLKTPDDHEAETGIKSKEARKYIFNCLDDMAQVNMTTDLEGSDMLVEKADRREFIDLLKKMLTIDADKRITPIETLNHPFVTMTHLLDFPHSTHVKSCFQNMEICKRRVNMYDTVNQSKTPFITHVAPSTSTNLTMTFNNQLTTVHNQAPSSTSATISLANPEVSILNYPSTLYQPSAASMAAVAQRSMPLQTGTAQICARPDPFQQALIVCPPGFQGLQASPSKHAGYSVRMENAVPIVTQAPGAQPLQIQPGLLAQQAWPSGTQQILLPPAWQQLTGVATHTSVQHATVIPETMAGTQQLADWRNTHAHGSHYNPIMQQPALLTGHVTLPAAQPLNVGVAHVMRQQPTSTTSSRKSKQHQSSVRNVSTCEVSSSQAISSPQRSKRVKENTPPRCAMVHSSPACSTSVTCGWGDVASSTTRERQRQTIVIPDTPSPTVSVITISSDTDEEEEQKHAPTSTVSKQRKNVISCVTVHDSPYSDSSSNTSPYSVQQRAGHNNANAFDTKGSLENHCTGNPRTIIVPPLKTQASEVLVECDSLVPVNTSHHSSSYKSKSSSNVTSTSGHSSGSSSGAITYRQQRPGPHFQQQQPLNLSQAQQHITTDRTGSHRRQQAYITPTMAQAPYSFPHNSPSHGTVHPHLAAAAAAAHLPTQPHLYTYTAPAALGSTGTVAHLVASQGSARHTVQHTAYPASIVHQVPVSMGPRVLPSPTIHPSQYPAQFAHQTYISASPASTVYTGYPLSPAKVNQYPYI

PIK3CA(E545A) = PIK3CA(E545A) (Homo sapiens, UniProt P42336, E545A); conditions: read-out: Percent control / Zanubrutinib
DCAMKL1 = biological target: T8, DCAMKL1 (Homo sapiens, UniProt O15075); conditions: read-out: Percent control / Zanubrutinib
T8 construct: gene DCLK1

PIK3CB = PIK3CB (Homo sapiens, UniProt P42338); conditions: read-out: Percent control / Zanubrutinib
CDC2L5 = biological target: T9, CDC2L5 (Homo sapiens, UniProt Q14004); conditions: read-out: Percent control / Zanubrutinib
T9 construct: gene CDK13
T9 sequence (Q14004 whole entry): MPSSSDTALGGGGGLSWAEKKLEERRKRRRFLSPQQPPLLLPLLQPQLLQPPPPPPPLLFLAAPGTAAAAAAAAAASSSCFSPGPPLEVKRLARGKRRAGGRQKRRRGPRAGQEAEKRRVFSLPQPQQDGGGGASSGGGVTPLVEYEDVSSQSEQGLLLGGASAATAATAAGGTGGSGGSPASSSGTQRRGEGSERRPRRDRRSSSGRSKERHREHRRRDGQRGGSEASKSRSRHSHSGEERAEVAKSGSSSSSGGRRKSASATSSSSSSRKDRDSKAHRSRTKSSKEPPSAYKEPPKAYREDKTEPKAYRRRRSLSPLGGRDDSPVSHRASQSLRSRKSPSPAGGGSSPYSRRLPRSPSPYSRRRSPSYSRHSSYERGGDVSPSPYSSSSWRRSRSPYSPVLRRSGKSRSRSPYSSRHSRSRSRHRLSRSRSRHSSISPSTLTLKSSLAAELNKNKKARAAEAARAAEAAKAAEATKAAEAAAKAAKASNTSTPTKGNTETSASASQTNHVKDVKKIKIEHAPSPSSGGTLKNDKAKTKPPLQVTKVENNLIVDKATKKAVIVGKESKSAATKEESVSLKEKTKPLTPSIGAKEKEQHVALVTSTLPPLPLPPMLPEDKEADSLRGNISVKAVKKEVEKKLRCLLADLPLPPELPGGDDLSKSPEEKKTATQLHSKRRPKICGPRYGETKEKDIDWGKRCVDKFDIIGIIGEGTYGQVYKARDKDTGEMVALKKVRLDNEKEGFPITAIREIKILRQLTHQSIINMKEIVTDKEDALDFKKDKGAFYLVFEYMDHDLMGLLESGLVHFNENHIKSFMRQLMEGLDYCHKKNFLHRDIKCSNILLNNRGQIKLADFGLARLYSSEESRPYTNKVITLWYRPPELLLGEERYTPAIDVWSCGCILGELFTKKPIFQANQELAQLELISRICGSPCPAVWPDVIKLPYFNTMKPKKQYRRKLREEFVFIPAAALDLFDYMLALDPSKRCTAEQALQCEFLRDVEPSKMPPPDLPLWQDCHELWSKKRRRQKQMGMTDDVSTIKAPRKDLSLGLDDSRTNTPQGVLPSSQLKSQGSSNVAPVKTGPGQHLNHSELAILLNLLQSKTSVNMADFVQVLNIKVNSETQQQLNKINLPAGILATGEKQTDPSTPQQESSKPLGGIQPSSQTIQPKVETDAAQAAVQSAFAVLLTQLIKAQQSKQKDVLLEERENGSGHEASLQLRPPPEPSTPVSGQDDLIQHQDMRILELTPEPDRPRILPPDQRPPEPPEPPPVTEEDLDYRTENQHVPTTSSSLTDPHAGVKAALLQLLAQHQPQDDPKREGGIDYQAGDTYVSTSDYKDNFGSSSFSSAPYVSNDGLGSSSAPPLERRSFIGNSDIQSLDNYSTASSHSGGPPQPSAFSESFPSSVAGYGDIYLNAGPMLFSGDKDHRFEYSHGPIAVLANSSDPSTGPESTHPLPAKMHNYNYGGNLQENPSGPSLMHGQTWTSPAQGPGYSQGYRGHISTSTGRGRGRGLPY

ZAP70 = ZAP70 (Homo sapiens, UniProt P43403); conditions: read-out: Percent control / Zanubrutinib
CASK = CASK (Homo sapiens, UniProt O14936); conditions: read-out: Percent control / Zanubrutinib

Q: How did the remaining binding at 0.3 µM (PKN2) turn out when `CC#CC(=O)N1CCC[C@H]1c1nc(-c2ccc(C(=O)Nc3ccccn3)cc2)c2c(N)nccn12` [Acalabrutinib] was run?
A: 93%

Q: What about the remaining binding at 0.3 µM (PRKD3) of the same compound?
A: 81%

Q: And the remaining binding at 0.3 µM (TAOK2)?
A: 93%

Q: And the remaining binding at 0.3 µM [1]?
A: 94%

Q: What about the remaining binding at 0.3 µM (CDC2L2) of the same compound?
A: 82%

Q: And the remaining binding at 0.3 µM (YANK3)?
A: 84%

Q: With `C=CC(=O)N1CCC[C@@H](n2nc(-c3ccc(Oc4ccccc4)cc3)c3c(N)ncnc32)C1` [Ibrutinib] as the compound, how does the remaining binding at 0.3 µM (ALK) read?
A: 87%

Q: For `CC#CC(=O)N1CC[C@@H](n2c(=O)n(-c3ccc(Oc4ccccc4)cc3)c3c(N)ncnc32)C1` [Tirabrutinib], which remaining binding at 0.3 µM (YES) is on record?
A: 71%

Q: What about the remaining binding at 0.3 µM (PRKR) of the same compound?
A: 93%

Q: And the remaining binding at 0.3 µM (EGFR(G719C))?
A: 54%

Q: And the remaining binding at 0.3 µM (EGFR(L861Q))?
A: 86%

Q: With `C=CC(=O)N1CCC([C@@H]2CCNc3c(C(N)=O)c(-c4ccc(Oc5ccccc5)cc4)nn32)CC1` [Zanubrutinib] as the compound, how does the remaining binding at 0.3 µM (MEK4) read?
A: 93%

Q: And the remaining binding at 0.3 µM (VRK2)?
A: 97%

Q: And the remaining binding at 0.3 µM (LRRK2)?
A: 64%

Q: And the remaining binding at 0.3 µM (TRKC)?
A: 97%

Q: What about the remaining binding at 0.3 µM (CSNK2A2) of the same compound?
A: 100%

Q: And the remaining binding at 0.3 µM (HIPK2)?
A: 87%

Q: And the remaining binding at 0.3 µM (PIK3CA(E545A))?
A: 59%

Q: What about the remaining binding at 0.3 µM (DCAMKL1) of the same compound?
A: 100%

Q: And the remaining binding at 0.3 µM (PIK3CB)?
A: 98%

Q: What about the remaining binding at 0.3 µM (CDC2L5) of the same compound?
A: 99%

Q: What about the remaining binding at 0.3 µM (ZAP70) of the same compound?
A: 68%

Q: And the remaining binding at 0.3 µM (CASK)?
A: 72%
